Source: paper PMC10384408, “Anticancer Tungstenocenes with a Diverse Set of (O,O–), (O,S–) and (O,N–) Chelates—A Detailed Biological Study Using an Improved Evaluation via 3D Spheroid Models” (Pharmaceutics, 2023)
Values joined by “and” are separate entries in the source; they are usually repeats but may differ in a detail not shown here. Identical values can stand only once.

Experiments:
[1] = test system: MCF-7 multicellular tumor spheroids; assay: Resazurin assay, MCF-7 3D spheroids; assay type: cell-based, human; conditions: 96 h; for IC50: spheroids
Procedure: (§1) CH1/PA-1 (ovarian teratocarcinoma), SW480 (colon carcinoma) and A549 (non-small cell lung cancer) cells were maintained as described in the reference. IMR-90 human fetal lung fibroblasts (from the European Collection of Authenticated Cell Cultures, Porton Down, Salisbury, UK) were cultured in Stable Cell^TM DMEM/F12 supplemented with 0.01 mg/mL human recombinant insulin (both purchased from Sigma-Aldrich) and 10% fetal bovine serum (FBS, BioWest, Nuaillé, France). Human colon carcinoma cell lines HCT116 and HT29 (both kindly provided by the Institute of Cancer Research, Department of Medicine I, Medical University of Vienna, Austria) were cultured in McCoy’s 5a medium supplemented with 4 mM L-glutamine (both purchased from Sigma-Aldrich) and 10% FBS. MCF-7 human breast adenocarcinoma cells (kindly provided by M. Ogris, Department of Pharmaceutical Sciences, University of Vienna, Austria) were maintained in DMEM (high glucose) supplemented with 4 mM L-glutamine, 0.1 mg/mL human insulin (all purchased from Sigma-Aldrich) and 10% FBS. All cell lines were grown as monolayers in 75 cm^2 culture flasks (CytoOne, Starlab, Hamburg, Germany) at 37 °C in a humidified atmosphere containing 5% CO2.
(§2) For growing multicellular tumor spheroids, 400 HCT116, 400 HT29 or 800 MCF-7 cells per well were plated into round-bottom ultra-low attachment 96-well plates (Corning, Glendale, AZ, USA) in the media described above and incubated at 37 °C for 96 h. Spheroids were treated with 10 µM of the two most cytotoxic compounds 3 and 4 for another 96 h. The diameters of the spheroids were measured with Cell^F software under a CKX41 Olympus microscope before treatment and in constant daily intervals over the 96 h treatment period. For statistical analysis the t-test with Welsh’s correction was implemented in GraphPad Prism software (Version 6.01).
(§3) For the resazurin assay in monolayer cultures, cells were seeded into 96-well microculture plates (CytoOne, tissue culture treated, Starlab, Hamburg, Germany) in densities of 2 × 10^3 HCT116, 2 × 10^3 HT29 and 4 × 10^3 MCF-7 cells per well (each in 100 µL). For tests in 3D cultures, spheroids were grown as described above. After 24 h (for monolayers) or 4 days (for spheroids) the test compounds in the appropriate medium were added in serial dilution to the plates to obtain a total volume of 200 µL/well. Wells without cells, containing medium and resazurin (Alfa Aesar, Thermo Fisher, Kandel, Germany) solution were used as blanks. After 96 h exposure 20 µL of the resazurin solution (440 µM) were added to each well, followed by a 4 h (2D) or 12 h (3D) incubation period. Resorufin fluorescence was quantified at 530 nm (and a reference wavelength of 620 nm) by using a microplate reader (Synergy HT, BioTek) with Gen5^TM 3.10 software (BioTek).

[2] = test system: HT29 multicellular tumor spheroids; assay: Resazurin assay, HT29 3D spheroids; assay type: cell-based, human; conditions: 96 h; for IC50: spheroids
Procedure: as §1, §2, §3

[3] = Cyclic voltammetry in MeCN (W(IV) to W(V)); assay type: physicochemical; conditions: vs. NHE, scan rate 200 mV/s
Procedure: NMR spectra were recorded with a Bruker FT-NMR Avance III^TM 500 MHz spectrometer at 500.10 (^1H), and 125.75 MHz (^13C) using DMSO–d6. 2D-NMR measurements were recorded utilizing standard pulse programs COSY, HSQC and HMBC. The Microanalytical Laboratory of the University of Vienna performed the elemental analyses with a Eurovector EA 3000(2009) equipped with a high temperature pyrolysis furnace (HT, Hekatech, Germany, 2009). Elemental analyses’ samples were weighed (weights from 1–3 mg were used) on a Sartorius SEC 2 ultra-micro balance with ±0.1 µg resolution. Two NIST-certified reference materials were used for calibration: sulfanilamide (C6H8N2O2S) and BBOT (2,5-bis-(5-tert-butyl-2-benzoxazol-2-yl)-thiophenone, C26H26N2O2S). The limit of quantification (LOQ) was 0.05 w% for C, H, N and 0.02 w% for S. For samples without N and/or S, the content of these elements was determined and verified to be below the LOQ. X-ray diffraction analyses were carried out on a Bruker X8 APEX II CCD diffractometer at 100 K. ESI-MS were recorded on a Bruker AmaZon SL ion trap mass spectrometer (Bruker Daltonics GmbH). Data were obtained and processed with Compass 1.3 and Data Analysis 4.0 (Bruker Daltonics GmbH). Infrared spectra were attained on a Bruker Vertex 70 FT-IR-spectrometer with an ATR-unit (attenuated total reflection unit) in the range of 4000–600 cm^−1. Intensities of the reported bands are described with w for weak, m for medium and s for strong; broad signals are additionally specified with the letter b in front of these abbreviations. Cyclic voltammograms (CVs) were measured in a three-electrode cell using 2 mm diameter glassy carbon disk working electrode, a platinum auxiliary electrode and an Ag|Ag^+ reference electrode containing 0.1 M AgNO3. Measurements were carried out at room temperature using an EG&G PARC potentiostat/galvanostat 273A. The solutions were deoxygenized by purging a stream of argon for 3 min through the solution and the experiment was performed under an argon atmosphere. The potentials were measured in a freshly prepared solution of (n Bu4N)[BF4] (0.1 M) in acetonitrile using ferrocene (Fe(η^5-C5H5)2) (E1/2 = +0.72 V vs. NHE) as an internal standard and are quoted relative to the normal hydrogen electrode (NHE).
The electrochemical behavior of all complexes and the precursor Cp2WCl2 was studied by cyclic voltammetry with a scan rate of 200 mV/s, from −0.5 to +1.2 or +1.5 V. Measurements were performed in triplicate. Due to low water solubility of compounds 1–10 acetonitrile (MeCN) was utilized in order to reach the 2 mM concentration.

MCF-7 cells [4] = assay: Resazurin assay, MCF-7 2D monolayer; assay type: cell-based, human; conditions: 96 h
Procedure: as §1, §3

[5] = test system: HCT116 multicellular tumor spheroids; assay: Resazurin assay, HCT116 3D spheroids; assay type: cell-based, human; conditions: 96 h; for IC50: spheroids
Procedure: as §1, §2, §3

MCF-7 cells [6] = assay: Annexin V-FITC/PI apoptosis assay, MCF-7; conditions: MCF-7, 24 h; for ∑apoptotic cells [%]: sum of early and late

Row | SMILES | ratio 3D/2D of IC50 values, MCF-7 [1] | IC50 [1] | ratio 3D/2D of IC50 values, HT29 [2] | IC50 [2] | E1/2 [3] | IC50 (MCF-7 cells [4]) | ratio 3D/2D of IC50 values, HCT116 [5] | IC50 [5] | early apoptotic cells [%] AV+ / PI- (MCF-7 cells [6]; 200 µM) | late apoptotic cells [%] AV+ / PI+ (MCF-7 cells [6]; 200 µM) | necrotic cells [%] AV- / PI+ (MCF-7 cells [6]; 200 µM) | viable cells [%] AV- / PI- (MCF-7 cells [6]; 200 µM) | early apoptotic cells [%] AV+ / PI- (MCF-7 cells [6]; 2 µM) | late apoptotic cells [%] AV+ / PI+ (MCF-7 cells [6]; 2 µM) | necrotic cells [%] AV- / PI+ (MCF-7 cells [6]; 2 µM) | viable cells [%] AV- / PI- (MCF-7 cells [6]; 2 µM) | ∑apoptotic cells [%] (MCF-7 cells [6]; 2 µM) | early apoptotic cells [%] AV+ / PI- (MCF-7 cells [6]; 10 µM) | late apoptotic cells [%] AV+ / PI+ (MCF-7 cells [6]; 10 µM) | ∑apoptotic cells [%] (MCF-7 cells [6]; 200 µM) | other results
1 | Cc1occc(=S)c1[O-].F[P-](F)(F)(F)(F)F.[W+4].c1cc[cH-]c1.c1cc[cH-]c1 [Compound 2, Bis(η^5-cyclopentadienyl)[2-methyl-3-(oxo-κO)-4-(1H)-pyran-4-thionato-κS]tungsten(IV) hexafluorophosphate] | > 3.0 | > 200 µM | > 3.8 | > 200 µM | 1.047 V | 66 ± 12 µM | 1.6 | 158 ± 28 µM | 7.4 ± 2.7% | 22.7 ± 4.5% | 14.9 ± 8.3% | 55.1 ± 10.1% | – | – | – | – | – | – | – | – | –
2 | F[P-](F)(F)(F)(F)F.O=c1c([O-])c(-c2ccc(Cl)cc2)oc2ccccc12.[W+4].c1cc[cH-]c1.c1cc[cH-]c1 [Compound 3, Bis(η^5-cyclopentadienyl)[2-(4-chlorophenyl)-3-(oxo-κO)-4(H)-chromen-4-oato-κO]tungsten(IV) hexafluorophosphate] | 6.8 and 7.0 | 44 ± 1 µM | 5.1 | 86 ± 2 µM | 1.059 V | 6.5 ± 1.8 µM | 2.3 | 21 ± 4 µM | – | – | – | – | 1.4 ± 0.5% | 4.3 ± 1.5% | 2.5 ± 0.6% | 91.8 ± 1.9% | 5.6% | 1.4 ± 0.3% | 7.7± 4.4% | – | necrotic cells [%] AV- / PI+ (MCF-7 cells [6]; 10 µM): 4.1 ± 1.8%; viable cells [%] AV- / PI- (MCF-7 cells [6]; 10 µM): 86.9 ± 5.9%; ∑apoptotic cells [%] (MCF-7 cells [6]; 10 µM): 9.1%; early apoptotic cells [%] AV+ / PI- (MCF-7 cells [6]; 20 µM): 1.5 ± 0.6%; late apoptotic cells [%] AV+ / PI+ (MCF-7 cells [6]; 20 µM): 11.4 ± 0.7%; necrotic cells [%] AV- / PI+ (MCF-7 cells [6]; 20 µM): 8.7 ± 0.3%; viable cells [%] AV- / PI- (MCF-7 cells [6]; 20 µM): 78.5 ± 1.0%; ∑apoptotic cells [%] (MCF-7 cells [6]; 20 µM): 12.9%; early apoptotic cells [%] AV+ / PI- (MCF-7 cells [6]; 50 µM): 1.3 ± 0.5%; late apoptotic cells [%] AV+ / PI+ (MCF-7 cells [6]; 50 µM): 16.2 ± 2.5%; necrotic cells [%] AV- / PI+ (MCF-7 cells [6]; 50 µM): 25 ± 0.9%; viable cells [%] AV- / PI- (MCF-7 cells [6]; 50 µM): 57.7 ± 2.2%
3 | F[P-](F)(F)(F)(F)F.[O-]c1c(-c2ccc(Cl)cc2)oc2ccccc2c1=S.[W+4].c1cc[cH-]c1.c1cc[cH-]c1 [Compound 4, Bis(η^5-cyclopentadienyl)[2-(4-chlorophenyl)-3-(oxo-κO)-4(H)-chromen-4-thionato-κS]tungsten(IV) hexafluorophosphate] | 7.0 | 19 ± 2 µM | 5.6 | 31 ± 6 µM | 1.082 V | 2.7 ± 0.7 µM | 2.5 | 15 ± 4 µM | – | – | – | – | 1.0 ± 0.8% | 3.4 ± 1.2% | 1.8 ± 0.0% | 93.9 ± 2.1% | 4.4% | 1.2 ± 0.5% | 12.0 ± 2.0% | – | necrotic cells [%] AV- / PI+ (MCF-7 cells [6]; 10 µM): 11.7 ± 4.7%; viable cells [%] AV- / PI- (MCF-7 cells [6]; 10 µM): 75.2 ± 2.2%; ∑apoptotic cells [%] (MCF-7 cells [6]; 10 µM): 13.2%; early apoptotic cells [%] AV+ / PI- (MCF-7 cells [6]; 20 µM): 1.0 ± 0.4%; late apoptotic cells [%] AV+ / PI+ (MCF-7 cells [6]; 20 µM): 15.1 ± 3.3%; necrotic cells [%] AV- / PI+ (MCF-7 cells [6]; 20 µM): 33.8 ± 14.5%; viable cells [%] AV- / PI- (MCF-7 cells [6]; 20 µM): 50.2 ± 10.8%; early apoptotic cells [%] AV+ / PI- (MCF-7 cells [6]; 50 µM): 0.0 ± 0.0%; late apoptotic cells [%] AV+ / PI+ (MCF-7 cells [6]; 50 µM): 43.4 ± 3.7%; necrotic cells [%] AV- / PI+ (MCF-7 cells [6]; 50 µM): 51.5 ± 10.3%; viable cells [%] AV- / PI- (MCF-7 cells [6]; 50 µM): 5.0 ± 6.6%; ∑apoptotic cells [%] (MCF-7 cells [6]; 50 µM): 43.4%
4 | F[P-](F)(F)(F)(F)F.O=C([O-])c1ccccn1.[W+4].c1cc[cH-]c1.c1cc[cH-]c1 [Compound 5, Bis(η^5-cyclopentadienyl)[2-(carboxylato-κO)-pyridine-κN]tungsten(IV) hexafluorophosphate] | – | > 200 µM | – | > 200 µM | 1.330 V | > 200 µM | – | > 200 µM | 1.3 ± 0.7% | 7.9 ± 5.3% | 4.2 ±2.2% | – | – | – | – | – | – | – | – | 9.2% | –
5 | Cc1c([O-])c(=O)ccn1C.F[P-](F)(F)(F)(F)F.[W+4].c1cc[cH-]c1.c1cc[cH-]c1 [Compound 6, Bis(η^5-cyclopentadienyl)[1,2-dimethyl-3-(oxo-κO)-4-(1H)-pyridonato-κO]tungsten(IV) hexafluorophosphate] | – | > 200 µM | – | > 200 µM | 0.885 V | 172 ± 45 µM | – | > 200 µM | 1.4 ± 0.8% | 3.6 ± 1.5% | 2.1 ± 0.5% | 92.8 ± 2.2% | – | – | – | – | – | – | – | 5.1% | –
6 | Cc1cc(=O)c([O-])co1.F[P-](F)(F)(F)(F)F.[W+4].c1cc[cH-]c1.c1cc[cH-]c1 [Compound 7, Bis(η^5-cyclopentadienyl)[2-methyl-5-(oxo-κO)-4-(1H)-pyran-4-ato-κO] tungsten(IV) hexafluorophosphate] | – | > 200 µM | – | > 200 µM | 1.071 V | > 200 µM | – | > 200 µM | 1.3 ± 0.4% | 8.1 ± 5.5% | 3.2 ± 1.2% | 87.4 ± 6.6% | – | – | – | – | – | – | – | 9.4% | –
